In ChEMBL document CHEMBL4616720 (J Med Chem, 2020):

Key:
[1] = Toxicity in BALB/c nude mouse xenografted with human HCT116 cells assessed as body weight loss at 25 to 50 mg/kg, ip administered every 3 days for 21 days measured on day 7 relative to control; type: organism-based, HCT-116; conditions: in vivo
[2] = molecular target: T1, Peptide deformylase, mitochondrial (Homo sapiens) (UniProt Q9HBH1); assay: Inhibition of PDF in human A549 cells assessed as decrease in mtDNA encoded COX1 protein level measured after 48 hrs by Western blot analysis; type: cell-based
T1 sequence (whole entry): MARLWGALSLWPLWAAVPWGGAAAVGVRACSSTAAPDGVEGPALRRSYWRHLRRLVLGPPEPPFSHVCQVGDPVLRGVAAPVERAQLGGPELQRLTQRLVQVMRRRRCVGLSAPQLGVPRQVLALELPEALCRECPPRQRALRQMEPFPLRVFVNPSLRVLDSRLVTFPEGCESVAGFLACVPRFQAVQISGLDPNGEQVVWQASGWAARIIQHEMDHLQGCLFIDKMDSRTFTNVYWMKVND

[3] = molecular target: T1, Peptide deformylase, mitochondrial (Homo sapiens); assay: Inhibition of PDF in human MCF7 cells assessed as decrease in mtDNA encoded COX1 protein level measured after 48 hrs by Western blot analysis; type: cell-based
[4] = system: A549; assay: Induction of apoptosis in human A549 cells assessed as necrotic cells at 40 uM measured after 24 hrs by Annexin V-FITC/propidium iodide staining based FACSClibur flow cytometry analysis (reference value: 0.37 %); type: functional
[5] = system: A549; assay: Induction of apoptosis in human A549 cells assessed as live cells at 40 uM measured after 48 hrs by Annexin V-FITC/propidium iodide staining based FACSClibur flow cytometry analysis (reference value: 95.5 %); type: functional
[6] = system: A549; assay: Induction of apoptosis in human A549 cells assessed as necrotic cells at 40 uM measured after 48 hrs by Annexin V-FITC/propidium iodide staining based FACSClibur flow cytometry analysis (reference value: 0.49 %); type: functional
[7] = molecular target: Histone deacetylase 1 (Homo sapiens, UniProt Q13547); assay: Inhibition of HDAC1 (unknown origin) using Boc-Lys(Ac)-pNA as substrate preincubated for 20 mins followed by substrate addition and further incubated for 90 mins by fluorescence assay
Chain of Histone deacetylase 1 (Q13547 whole entry): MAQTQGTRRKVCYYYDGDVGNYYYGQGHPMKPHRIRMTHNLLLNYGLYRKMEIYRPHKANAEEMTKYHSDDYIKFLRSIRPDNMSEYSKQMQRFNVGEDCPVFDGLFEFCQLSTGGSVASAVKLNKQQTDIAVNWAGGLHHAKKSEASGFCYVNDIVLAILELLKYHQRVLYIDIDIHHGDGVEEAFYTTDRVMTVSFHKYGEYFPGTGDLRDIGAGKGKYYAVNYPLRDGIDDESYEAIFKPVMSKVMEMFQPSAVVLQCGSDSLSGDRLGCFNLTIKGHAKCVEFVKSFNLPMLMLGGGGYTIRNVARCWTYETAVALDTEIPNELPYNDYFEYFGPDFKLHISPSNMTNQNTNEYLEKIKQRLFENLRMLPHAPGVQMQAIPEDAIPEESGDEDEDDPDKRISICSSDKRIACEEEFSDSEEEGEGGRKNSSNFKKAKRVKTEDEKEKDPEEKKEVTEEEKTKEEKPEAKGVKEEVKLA

[8] = molecular target: T2, Protein deacetylase HDAC6 (Homo sapiens, UniProt Q9UBN7); assay: Inhibition of HDAC6 (unknown origin) using Boc-Lys(Ac)-pNA as substrate preincubated for 20 mins followed by substrate addition and further incubated for 90 mins by fluorescence assay
T2 sequence (Q9UBN7 whole entry): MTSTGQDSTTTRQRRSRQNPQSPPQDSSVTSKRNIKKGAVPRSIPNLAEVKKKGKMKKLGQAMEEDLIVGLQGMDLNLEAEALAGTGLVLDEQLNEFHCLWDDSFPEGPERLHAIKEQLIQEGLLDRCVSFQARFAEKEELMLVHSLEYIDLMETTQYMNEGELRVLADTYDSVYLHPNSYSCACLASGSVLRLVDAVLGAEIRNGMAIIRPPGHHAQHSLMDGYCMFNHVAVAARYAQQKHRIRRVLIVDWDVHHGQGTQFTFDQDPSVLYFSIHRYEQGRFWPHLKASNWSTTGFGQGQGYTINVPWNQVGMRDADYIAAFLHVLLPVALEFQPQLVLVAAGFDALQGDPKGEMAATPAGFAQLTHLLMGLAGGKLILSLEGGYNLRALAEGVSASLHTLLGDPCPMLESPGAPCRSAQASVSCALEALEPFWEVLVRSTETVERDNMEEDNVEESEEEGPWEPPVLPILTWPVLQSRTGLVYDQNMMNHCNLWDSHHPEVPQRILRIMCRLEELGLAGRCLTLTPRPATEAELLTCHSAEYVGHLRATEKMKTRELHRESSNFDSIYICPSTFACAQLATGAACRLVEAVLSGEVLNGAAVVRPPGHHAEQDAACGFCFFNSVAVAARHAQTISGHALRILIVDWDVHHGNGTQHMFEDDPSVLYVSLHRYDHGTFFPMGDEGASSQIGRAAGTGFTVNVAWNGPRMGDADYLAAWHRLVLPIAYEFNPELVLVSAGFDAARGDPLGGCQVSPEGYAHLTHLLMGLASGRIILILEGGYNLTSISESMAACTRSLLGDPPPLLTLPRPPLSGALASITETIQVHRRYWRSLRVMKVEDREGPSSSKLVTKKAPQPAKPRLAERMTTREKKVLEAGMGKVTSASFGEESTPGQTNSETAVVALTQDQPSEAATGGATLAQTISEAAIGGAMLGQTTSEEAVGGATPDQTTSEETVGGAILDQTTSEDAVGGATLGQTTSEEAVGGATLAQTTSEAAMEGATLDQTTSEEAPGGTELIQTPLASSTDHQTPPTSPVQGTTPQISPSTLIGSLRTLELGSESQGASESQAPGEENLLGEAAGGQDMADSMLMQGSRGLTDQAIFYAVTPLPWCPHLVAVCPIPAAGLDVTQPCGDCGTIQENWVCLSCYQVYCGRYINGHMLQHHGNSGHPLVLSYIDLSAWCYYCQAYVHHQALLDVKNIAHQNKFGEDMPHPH

[9] = molecular target: T3, Protein deacetylase HDAC6 (Homo sapiens) (UniProt Q9UBN7); assay: Inhibition of HDAC6 (unknown origin) at 10 uM using Boc-Lys(Ac)-pNA as substrate preincubated for 20 mins followed by substrate addition and further incubated for 90 mins by fluorescence assay relative to control
T3 sequence (whole entry): T2 sequence (Q9UBN7 whole entry)

[10] = Clearance in Sprague-Dawley rat at 2 mg/kg, iv measured up to 24 hrs by LC-MS/MS analysis; type: ADME, organism-based; conditions: in vivo
[11] = Apparent volume of distribution at steady state in Sprague-Dawley rat at 2 mg/kg, iv measured up to 24 hrs by LC-MS/MS analysis; type: ADME, organism-based; conditions: in vivo, read-out: Vdss(app)
[12] = Cmax in Sprague-Dawley rat at 20 mg/kg, po measured at 0.25 hrs by LC-MS/MS analysis; type: ADME, organism-based; design: dose 20 mg/kg, route oral; conditions: in vivo
[13] = Selectivity index, ratio of IC50 for human MCF10A cells assessed as reduction in cell growth measured after 48 hrs by CCK8 assay to IC50 for human HCT116 cells assessed as reduction in cell growth measured after 48 hrs by CCK8; type: toxicity; conditions: MCF10A cells versus HCT116 cells, read-out: Ratio IC50
[14] = Selectivity index, ratio of IC50 for human MCF10A cells assessed as reduction in cell growth measured after 48 hrs by CCK8 assay to IC50 for human SJSA1 cells assessed as reduction in cell growth measured after 48 hrs by CCK8; type: toxicity; conditions: MCF10A cells versus SJSA1 cells, read-out: Ratio IC50
[15] = Selectivity index, ratio of IC50 for human MCF10A cells assessed as reduction in cell growth measured after 48 hrs by CCK8 assay to IC50 for human MCF7 cells assessed as reduction in cell growth measured after 48 hrs by CCK8; type: toxicity; conditions: MCF10A cells versus MCF7 cells, read-out: Ratio IC50
[16] = Toxicity in KM mouse assessed as weight loss at 262.1 to 640 mg/kg, ip administered as single dose measured 3 times per week for 14 days; type: organism-based; conditions: in vivo, 336 h
[17] = Toxicity in KM mouse assessed as clinical changes at <262 mg/kg, ip administered as single dose measured for 14 days; type: organism-based; conditions: in vivo, 336 h

With O=C(C[C@@H](CC1CCCC1)C(=O)N1CC2(CC2)C[C@H]1c1nc(-c2ccc(F)cc2C(F)(F)F)no1)NO the Activity [1] was 5%, the inhibition [2] was “Dose-dependent effect” and the inhibition [3] was “Dose-dependent effect”. It also gave an Activity [4] of 1.12%, an Activity [5] of 80.9% and an Activity [6] of 1.01%. It also gave an IC50 [7] greater than 10 µM, an IC50 [8] greater than 10 µM and an inhibition [9] of 0.41%. It also gave a CL [10] of 26.68 L/kg/h, a Vd [11] of 5.26 L/kg and a Cmax [12] of 617 ng/mL. It also gave a selectivity ratio at 48 h [13] of 9, a selectivity ratio at 48 h [14] of 9 and a selectivity ratio at 48 h [15] of 9. The Activity [16] was “Toxic” and the Activity [17] was “Non-Toxic”.
